One assay has as its system KB. In words: Cytotoxicity against human KB cells. Type of assay: functional. The conditions noted are these: read-out: ED50 (the source's name).
The subject of another assay is P388. Put plainly: In vivo cytotoxicity against mouse P388 cells at 2 mg/kg relative to control. Type of assay: functional.

SMILES strings stand for the structures. In brackets after ≈: the same amount, converted by molar mass.

For the compound `CCOC(=O)CC1(O)C=CC(=O)C=C1`, the EC50 in the assay on KB turned out to be 3.3 µg/mL (≈ 16.8 µM).
On the same count and under the same terms, as for `COC(=O)CC1(O)C=CC(=O)c2ccccc21` (stereo unspecified), the figure is 20 µg/mL (≈ 86.1 µM); as for `COC(=O)CC1(O)C=C(OC)C(=O)c2ccccc21` (stereo unspecified), 25 µg/mL (≈ 95.3 µM); as for `COC(=O)CC1(O)C=C(C)C(=O)c2ccccc21` (stereo unspecified), 100 µg/mL (≈ 406 µM).
`COC(=O)CC1(O)C=CC(=O)C=C1` [JACARANONE]: in the assay with KB, the EC50 came to 2.1 µg/mL (≈ 11.5 µM). Further, the T/C (in general, the result in the treated group divided by that in the control group, in per cent) with P388 is 165%.

For the origin of these results see ChEMBL document CHEMBL1151396, “Synthesis of naphthoquinoles as potential antitumor agents related to jacaranone” (1982).
